Experimental data taken from US20230124142A1, “NEW THERAPEUTIC TARGETS WITH AN ANTI-INFLAMMATORY AND ANTI-INTERFERON EFFECT” (UNIVERSITÉ PARIS CITÉ, priority 2020, published 2023).

What was measured:
[1] = test system: THP1-Dual human monocyte cell line; assay: Interferon response of cGAMP-activated THP1-Dual cells, luciferase; conditions: inhibitor 1 h before cGAMP 3 μg/ml, 24 h, luciferase (FIG. 22B, 23B)
[2] = test system: monocytes of healthy donors; assay: Intracellular TNFα production in monocytes after TLR7/8 (Resiquimod-R848) stimulation, flow cytometry; type: cell-based, human; conditions: inhibitor 1 h before R848 (TLR7/8), 16 h, flow cytometry (FIG. 1, 2)
Experimental: (§1) The cells were rinsed in PBS then incubated with a viability dye (Zombie Aqua, Biolegend) for 30 min at ambient temperature. After washing, the cells were resuspended in PBS containing 2% SVF and 2 mM EDTA then labelled with the APC Vio770 anti-CD14 (clone REA599) antibody from Miltenyi Biotec, used at 1/100°. […] Data acquisition was carried out on the Canto 11 flow cytometer using the Diva software (BD Biosciences, San Jose, Calif.). The Kaluza software was used to analyze the data.

[3] = test system: monocytes of healthy donors; assay: Intracellular IL1β and TNFα in monocytes after inflammasome activation by uric acid crystals (MSU, gout model), flow cytometry; type: cell-based, human; conditions: activation of the inflammasome by uric acid crystals (mimicking gout)
Experimental: as §1, with “II” for “11”

[4] = test system: peripheral blood mononuclear cells (PBMCs); assay: Cell toxicity on PBMCs, ATP quantification with CellTiter Glo; type: cell-based, human; conditions: cGAMP 24 h
human PBMCs = assay: Interferons in supernatants of R848-stimulated PBMCs, STING-37 reporter cell line; type: cell-based; set-up: dose or concentration left out as unconfirmed; conditions: inhibitor 1 h before R848, 24 h, STING-37 reporter (FIG. 17A)
B lymphocytes = assay: CD69 expression and viability of B lymphocytes activated with CpG-A (TLR9 ligand), flow cytometry; type: cell-based, human; conditions: purified B lymphocytes, 24 h (FIG. 20)
Experimental: (§2) The monocytes, T lymphocytes and B lymphocytes were cultured at 1·10^6/ml. […] The T lymphocytes were stimulated for 3 days with beads from the “Dynabeads human T activator CD3/CD28” kit from Thermo Fisher Scientific, following their instructions. […] The B lymphocytes were stimulated for 24 h with CpG-A t 1 μg/ml. […] The cells were rinsed in PBS then incubated with a viability dye (Zombie Aqua, Biolegend) for 30 min at ambient temperature. After washing, the cells were resuspended in PBS containing 2% SVF and 2 mM EDTA. For the monocytes, an intracellular labelling of TNFα, IL-6 and IL-1β, with the “Inside Stain” kit (Miltenyi Biotec) was used following the manufacturer's protocol. […] Data acquisition was carried out on the Attune N×T flow cytometer from Thermo Fisher. The FlowJo software was used to analyze the data. For the T lymphocytes, the cells were suspended in PBS containing 2% SVF and 2 mM EDTA then labelled with the PE anti-CD69 and APC anti-CD3 antibody from Miltenyi Biotec, used at 1/100°. After incubation for 30 min, the cells were rinsed in PBS containing 2% SVF and 2 mM EDTA. Data acquisition was carried out on the Attune N×T flow cytometer from Thermo Fisher. The FlowJo software was used to analyze the data. […]

[5] = test system: HEK293 non-immune cell line; assay: Interferon production by cGAMP-activated HEK293 non-immune cells (STING-37), luciferase; conditions: inhibitor at 1 and 5 μM (FIG. 22C)
activated immune cells = assay: Secretion of inflammatory cytokines and interferons by activated immune cells placed in contact with ROCK inhibitor; type: cell-based; conditions: compared with activated immune cells not placed in contact with the inhibitor
[6] = test system: peripheral blood mononuclear cells (PBMCs); assay: Interferon production by cGAMP-activated PBMCs, STING-37 reporter cell line; conditions: inhibitor 1 h before cGAMP 3 μg/ml, 24 h, STING-37 reporter (FIG. 22A, 23A)
[7] = test system: neurones infected by the prions; type: cell-based
T lymphocytes = assay: CD69 expression and viability of T lymphocytes activated with CD3/CD28 beads, flow cytometry; type: cell-based, human; conditions: purified T lymphocytes, 3 days (FIG. 19)
Experimental: as §2

[8] = test system: PBMCs of patients suffering from juvenile idiopathic arthritis; assay: Transcription of TNFα and IL-6 genes in PBMCs of juvenile idiopathic arthritis patients, RT-qPCR; type: cell-based, human; conditions: inhibitor at 1 μM for 16 h, RT-qPCR (FIG. 21)
[9] = test system: NF-κB transcription factor; assay: NF-κB transcription factor activity, supernatants of R848-stimulated PBMCs on THP1-Dual reporter line; type: cell-based; conditions: human PBMCs, inhibitor 1 h before R848, 24 h, QUANTI-Blue (FIG. 17B)
Experimental: The monocytes, T lymphocytes and B lymphocytes were cultured at 1·10^6/ml. […] The T lymphocytes were stimulated for 3 days with beads from the “Dynabeads human T activator CD3/CD28” kit from Thermo Fisher Scientific, following their instructions. […] The B lymphocytes were stimulated for 24 h with CpG-A t 1 μg/ml. […] The activity of the NF-κB transcription factor was measured by means of the THP1-Dual reporter cell line from Invivogen. […] The activity of the NF-κB transcription factor was measured with QUANTI-Blue, a detection agent […], following the supplier's recommendations.

[10] = test system: THP1-Dual human monocyte cell line; assay: Cell toxicity on THP1-Dual, ATP quantification with CellTiter Glo; type: cell-based; conditions: cGAMP 24 h
[11] = test system: monocytes of healthy donors; assay: TNFα, IL-1β and IL-6 production and viability of R848-activated purified monocytes, flow cytometry; type: cell-based, human
Experimental: as §2

[12] = test system: peripheral blood mononuclear cells (PBMCs) of healthy donors; assay: Secretion of inflammatory cytokines and interferons by PBMCs after TLR7/8 (R848) stimulation, LegendPlex; conditions: human PBMCs incubated with inhibitor before R848 stimulation
[13] = test system: immune cells (PBMCs and purified monocytes) of healthy donors; assay: Production of inflammatory cytokines by PBMCs and purified monocytes after TLR2/4 stimulation by bacterial agents; type: cell-based, human; conditions: TLR 2/4 stimulation by lipoteichoic acid/LPS

C[C@@H](N)[C@H]1CC[C@H](C(=O)Nc2ccncc2)CC1 [Y27632]
production of interferons (IFN) induced by the cGAMP [1]: blocks the production of interferons (IFN) induced by the cGAMP according to a dosage effect starting from 1 μM | intracellular production of inflammatory cytokines (TNFα) [2]: inhibits, according to a dosage effect | production of inflammatory cytokines [3]: capable of inhibiting the production of inflammatory cytokines | viability of the PBMCs [4]: without affecting the viability | production of IFN induced by the stimulation of TLR7/8 (human PBMCs): inhibits | viability of the B lymphocytes (B lymphocytes; CpG-A): without affecting the viability | expression of the CD69 marker at the surface of the B lymphocytes (B lymphocytes; inhibitor at 1 μM, 1 h before CpG-A 1 μg/ml): inhibits, according to a dosage effect | production of interferon induced by the STING ligand [5]: blocks in a limited manner | secretion of the inflammatory cytokines (TNFα, IL-1β, IL6, MCP1 (CCL2)) and of the interferons (IFN) (activated immune cells): inhibits the secretion | production of interferons (IFN) induced by the cGAMP [6]: blocks the production of interferons (IFN) induced by the cGAMP according to a dosage effect starting from 1 μM | level of TNFα in the culture medium [7]: re-establishes a “normal” level | viability of the T lymphocytes (T lymphocytes; CD3/CD28 beads): without affecting the viability | expression of the CD69 marker at the surface of the T lymphocytes (T lymphocytes; inhibitor at 1 and 5 μM, 1 h before CD3/CD28 beads): inhibits, according to a dosage effect | transcription of the genes encoding TNFα and IL-6 [8]: inhibits the transcription | activation of the transcription factor of the NF-κB pathway induced by the stimulation of TLR7/8 [9]: inhibits | viability of the THP1-Dual [10]: without affecting the viability | production of TNFα, IL-1β and IL-6 induced by R848 ([11]; inhibitor 1 h before R848 1 μg/ml, 6 h, flow cytometry (FIG. 18)): inhibits, according to a dosage effect | viability of the monocytes ([11]; inhibitor 1 h before R848, 6 h (FIG. 18)): without affecting the viability | production of TNFα and of pro-inflammatory cytokines such as IL-6, IL-1β and the interferons induced by the TLR7/8 stimulation [12]: inhibits the production | production of inflammatory cytokines [13]: capable of inhibiting the production of inflammatory cytokines
